# Biological target: T1, human α7 nicotinic acetylcholine receptor (α7 nAChR) (Homo sapiens, UniProt P36544)
# T1 construct: gene CHRNA7; human α7 nAChR transfected in GH4C1 cells
# Test: radioligand competition with on GH4C1 cells; agonism also shown by Ca2+ imaging in Neuro2a cells with PNU120596 (EC50 […])
# Assay type: cell-based
# T1 sequence (P36544 23-502): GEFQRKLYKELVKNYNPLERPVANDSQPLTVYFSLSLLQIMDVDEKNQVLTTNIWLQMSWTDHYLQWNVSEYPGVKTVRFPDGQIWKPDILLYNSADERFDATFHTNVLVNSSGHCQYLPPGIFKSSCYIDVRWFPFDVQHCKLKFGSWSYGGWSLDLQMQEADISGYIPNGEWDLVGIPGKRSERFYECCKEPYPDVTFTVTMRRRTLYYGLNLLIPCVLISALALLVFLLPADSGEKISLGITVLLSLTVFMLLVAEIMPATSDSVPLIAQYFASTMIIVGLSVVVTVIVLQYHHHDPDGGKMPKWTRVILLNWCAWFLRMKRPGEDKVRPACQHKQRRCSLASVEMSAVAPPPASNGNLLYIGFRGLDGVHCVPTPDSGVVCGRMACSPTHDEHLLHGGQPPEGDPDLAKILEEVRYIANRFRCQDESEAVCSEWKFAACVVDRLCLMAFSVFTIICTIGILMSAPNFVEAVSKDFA
compound,measurement,value
"C[N+](C)(C)[C@@H](Cc1c[nH]c2cc(Br)ccc12)C(=O)[O-] [6-BHP, 6-Bromohypaphorine]",IC50,23 ± 1 µM
